Data taken from patent US20220009906A1, “ISOINDOLIN-1-ONE DERIVATIVES USEFUL AS GRK2 INHIBITORS” (priority 2020, published 2022).
Values joined by “and” are separate entries in the source; they are usually repeats but may differ in a detail not shown here. Equal values may be shown once.

Molecular target: T1, GRK2 (Homo sapiens, UniProt P25098)
T1 sequence (P25098 1-689): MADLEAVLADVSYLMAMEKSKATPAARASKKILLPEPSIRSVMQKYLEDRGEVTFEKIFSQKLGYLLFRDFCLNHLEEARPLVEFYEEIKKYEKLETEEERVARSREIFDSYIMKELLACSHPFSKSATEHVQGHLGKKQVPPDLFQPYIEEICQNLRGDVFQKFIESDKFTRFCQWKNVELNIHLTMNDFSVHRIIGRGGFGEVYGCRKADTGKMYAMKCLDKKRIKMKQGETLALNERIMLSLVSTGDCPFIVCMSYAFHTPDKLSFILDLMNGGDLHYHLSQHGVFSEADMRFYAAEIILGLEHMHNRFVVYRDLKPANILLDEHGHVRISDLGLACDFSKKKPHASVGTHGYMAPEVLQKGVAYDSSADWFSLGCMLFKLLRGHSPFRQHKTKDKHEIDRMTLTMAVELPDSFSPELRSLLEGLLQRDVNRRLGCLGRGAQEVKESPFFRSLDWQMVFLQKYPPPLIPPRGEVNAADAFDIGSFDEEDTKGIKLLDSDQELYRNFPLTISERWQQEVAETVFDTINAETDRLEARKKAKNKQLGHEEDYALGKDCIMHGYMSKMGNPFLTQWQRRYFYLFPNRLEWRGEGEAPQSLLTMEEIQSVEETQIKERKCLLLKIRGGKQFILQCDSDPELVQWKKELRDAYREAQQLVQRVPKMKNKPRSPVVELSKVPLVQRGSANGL
Assay: GRK2 Transcreener Assay
Assay type: biochemical
Conditions: Biological Example 2 GRK2 Transcreener IC50 (μM), 10 nM GRK2; 10 μM ATP; 150 μM peptide substrate; multiple measurements listed individually
Protocol: Positive and negative control wells received an equal volume of DMSO. The final DMSO concentration in the assay is 1%.
The plate was placed in centrifuge equipped with a spin-bucket rotor and spun for 1 min at 1000 rpm.
GRK2 enzymatic reactions were initiated with the addition of 2 μL/well of 50 nM GRK2 in assay buffer. Plates were centrifuged for 1 min at 1000 rpm. For negative control wells, the order of reagent addition was reversed: 10 μL/well ADP detection mix (see below) was added first, followed by the addition of 2 μL/well of the GRK2 solution. Reaction mixtures were incubated at ambient temperature for 2 hours. Final concentrations of reagents in the assays were as follows:
Following incubation, the reactions were quenched with 10 μL/well of the Transcreener ADP detection mix. […] The plates were then centrifuged for 1 min at 1000 rpm.
Fluorescence polarization values of the reaction mixtures were read on a Safire plate reader after a 60 min incubation at ambient temperature. Excitation wavelength=590 nm; emission wavelength=650 nm.
The fluorescence polarization data were converted to % activity as follows:
% activity=(sample−NC)/(PC−NC)*100
where NC is the mean of negative control (ADP detection mix added prior to GRK2 addition), and PC is the mean of positive control (GRK2 reaction without inhibitor). IC50 values are determined from a 4-parameter fit, using the following equation:
Y=Bottom+(Top−Bottom)/(1+10^((Log IC50−X)*Hill slope))
where X=log10 of the compound concentration.

Compound	IC50
COc1cccc(CN2Cc3ccc(-c4c[nH]nn4)cc3C2=O)c1 [Compound 20, 2-(3-methoxybenzyl)-6-(1H-1,2,3-triazol-4-yl)isoindolin-1-one]	0.02 µM
CCOc1cccc(CN2Cc3ccc(-c4ccnc(N)n4)cc3C2=O)c1 [Compound 11]	0.383 µM
CS(=O)(=O)Nc1cccc(CN2Cc3ccc(-c4cn[nH]c4)cc3C2=O)c1 [Compound 9]	0.291 µM
Cc1cccc([C@@H](C)N2Cc3ccc(-c4cn[nH]c4)cc3C2=O)n1 [Compound 25]	0.546 µM
COc1cccc(CN2Cc3ccc(-c4ccnc(N)n4)cc3C2=O)c1 [Compound 4]	0.08 µM
COc1cccc(CN2C(=O)c3cc(-c4ccnc(N)n4)ccc3C2(C)C)c1 [Compound 17, 6-(2-aminopyrimidin-4-yl)-2-(3-methoxybenzyl)-3,3-dimethylisoindolin-1-one]	0.048 µM
COc1cccc(CN2C(=O)c3cc(-c4cn[nH]c4)ccc3C2CC#N)c1 (stereo not drawn) [Compound 15]	< 0.005 µM
O=C1c2cc(-c3cn[nH]c3)ccc2CN1Cc1cccc(F)c1 [Compound 16, 2-(3-Fluorobenzyl)-6-(1H-pyrazol-4-yl)isoindolin-1-one]	0.017 µM
C[C@H](c1cccc2ccccc12)N1Cc2ccc(-c3cn[nH]c3)cc2C1=O [Compound 24]	1.46 µM
CNC(=O)c1ccc(-c2ccc3c(c2)C(=O)N(Cc2cccc(OC)c2)C3)cn1 [Compound 23, 5-(2-(3-methoxybenzyl)-3-oxoisoindolin-5-yl)-N-methylpicolinamide]	> 50 µM
COc1cccc(CN2C(=O)c3cc(-c4cn[nH]c4)ccc3C23CCNCC3)c1 [Compound 14, 2-(3-methoxybenzyl)-5-(1H-pyrazol-4-yl)spiro[isoindoline-1,4′-piperidin]-3-one]	< 0.005 µM
COc1cccc(CN2C(=O)c3cc(-c4cn[nH]c4)ccc3C2(C)C)c1 [Compound 7, 2-(3-methoxybenzyl)-3,3-dimethyl-6-(1H-pyrazol-4-yl)isoindolin-1-one]	0.005 µM
O=C(O)c1cccc(CN2Cc3ccc(-c4cn[nH]c4)cc3C2=O)c1 [Compound 18]	0.139 µM
COc1cccc(CN2C(=O)c3cc(-c4c[nH]nn4)ccc3C2(C)C)c1 [Compound 21, 2-(3-methoxybenzyl)-3,3-dimethyl-6-(1H-1,2,3-triazol-4-yl)isoindolin-1-one]	0.054 µM
CC(C)(C)OC(=O)c1cccc(CN2Cc3ccc(-c4cn[nH]c4)cc3C2=O)c1 [Compound 164]	0.305 µM
COc1cccc([C@@H](C)N2Cc3ccc(-c4cn[nH]c4)cc3C2=O)c1 [Compound 13, (R)-2-(1-(3-methoxyphenyl)ethyl)-6-(1H-pyrazol-4-yl)isoindolin-1-one]	< 0.005 µM
COC(=O)c1cccc([C@@H](C)N2Cc3ccc(-c4cn[nH]c4)cc3C2=O)c1 [Compound 165]	> 50 µM
CS(=O)(=O)Nc1cccc(CN2Cc3ccc(-c4ccnc5[nH]ccc45)cc3C2=O)c1 [Compound 10]	0.719 µM
COc1cccc(CN2Cc3ccc(-c4cn[nH]c4)cc3C2=O)c1 [Compound 1, 2-(3-methoxybenzyl)-6-(1H-pyrazol-4-yl)isoindolin-1-one]	< 0.005 µM and 0.005 µM
CC(C)NC(=O)c1cccc(CN2Cc3ccc(-c4cn[nH]c4)cc3C2=O)c1 [Compound 19, N-isopropyl-3-[[1-oxo-6-(1H-pyrazol-4-yl)isoindolin-2-yl]methyl]benzamide]	< 0.005 µM
COc1cccc(CN2C(=O)c3cc(-c4cn[nH]c4)ccc3C23CC=CC3)c1 [Compound 6, 2′-(3-methoxybenzyl)-5′-(1H-pyrazol-4-yl)spiro[cyclopentane-1,1′-isoindolin]-3-en-3′-one]	0.01 µM
COc1cccc(CN2C(=O)c3cc(-c4cn[nH]c4)ccc3C23CC(O)C(O)C3)c1 (stereo not drawn) [Compound 8, 3,4-dihydroxy-2′-(3-methoxybenzyl)-5′-(1H-pyrazol-4-yl)spiro[cyclopentane-1,1′-isoindolin]-3′-one]	0.009 µM
CCOc1cccc(CN2Cc3ccc(-c4cn[nH]c4)cc3C2=O)c1 [Compound 2, 2-(3-ethoxybenzyl)-6-(1H-pyrazol-4-yl)isoindolin-1-one]	0.009 µM
NCc1cccc(CN2Cc3ccc(-c4cn[nH]c4)cc3C2=O)c1 [Compound 22, 2-(3-(Aminomethyl)benzyl)-6-(1H-pyrazol-4-yl)isoindolin-1-one]	1.2 µM

Molecular target: T1, GRK2
Assay: hGRK2 LANCE Ultra In Vitro Assay
Assay type: biochemical
Conditions: not given
In short: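 TR-FRET kinase assay with 10 nM GRK2 preincubated 30 min with compound, then 200 nM ULight-peptide and 30 or 600 μM ATP in HEPES pH 7.5, 10 mM MgCl2, 1% DMSO; 120 or 60 min at ambient temperature respectively.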

Compound	IC50
COc1cccc([C@@H](C)N2Cc3ccc(-c4cn[nH]c4)cc3C2=O)c1 [Compound 13, (R)-2-(1-(3-methoxyphenyl)ethyl)-6-(1H-pyrazol-4-yl)isoindolin-1-one]	< 0.005 µM

Same assay, conditions: Biological Example 1 GRK2 Lancer IC50 (μM), 10 nM GRK2; 30 or 600 μM ATP (not stated which); multiple measurements listed individually

Compound	IC50
COc1cccc(CN2C(=O)c3cc(-c4cn[nH]c4)ccc3C2CC#N)c1 (stereo not drawn) [Compound 15]	0.005 µM
CC(C)NC(=O)c1cccc(CN2Cc3ccc(-c4cn[nH]c4)cc3C2=O)c1 [Compound 19, N-isopropyl-3-[[1-oxo-6-(1H-pyrazol-4-yl)isoindolin-2-yl]methyl]benzamide]	< 0.005 µM
